The text below walks through data of patent US20260355191A1, “PAN-RAS INHIBITOR COMPOUND” (ADLAI NORTYE BIOPHARMA CO., LTD., priority 2024, published 2026).

Type in all cases: cell-based
Experiment [1] has as its system AsPC-1. The experiment can be described thus: In vitro cell proliferation inhibition assay (CellTiter-Glo), AsPC-1. The note with it: AsPC-1, KRAS (p.G12D), 72 h; read-out: IC50, antiproliferative activity. As for the experimental part:
(§1) Due to the diversity of RAS mutations, and in order to evaluate the activity of the compounds in different RAS mutant cell lines, we selected cell lines with KRAS^G12D, KRAS^G12V, KRAS^G12c, NRAS^q61L, KRAS^G13D, KRAS^G12R, and KRAS^WT mutations (see the table below for in vitro activity evaluation and screening of the compounds.
(§2) According to the doubling time of different cell lines, different numbers of cells (1000-5000 cells/well) were seeded into 96-well plates containing 180 μL of the corresponding culture medium, and incubated overnight in a cell incubator at 37 °C with 5% C02. On the following day, the test compounds were pre-diluted in the culture medium in a 3-fold serial dilution series, with the highest concentration being […], resulting in 10 concentration gradients in total. Subsequently, 20 μL of culture medium containing the compounds at different concentrations was added to the cells in the 96-well plates, ensuring a final compound concentration of up to 10 μM, with 10 concentrations in 3-fold dilution. After co-incubation of the cells with the compounds for 72 h, the 96-well plates were removed from the incubator and equilibrated at room temperature for 30 min. Then, 25 μL of CellTiter-Glo® Reagent was added to each well and mixed thoroughly, followed by incubation at room temperature for 10 min. Subsequently, 100 μL of the samples was transferred to white 96-well plates (OptiPlate™-96, PerkinElmer), and […] signal values were read using a multifunctional microplate reader (SpectraMax i3x, Molecular Devices). The signal values were then normalized, and curve fitting was performed using a four-parameter logistic regression equation to calculate the half maximal inhibitory concentration (IC50) of the compounds against the cell lines.
(In general: Cellular ATP, detected with luciferase, serves as a proxy for viable cell number.)

Experiment [2] has as its system SW480. The experiment can be described thus: In vitro cell proliferation inhibition assay (CellTiter-Glo), SW480. The note with it: SW480, KRAS (p.G12V), 72 h; read-out: IC50, antiproliferative activity. As for the experimental part: as §1, §2
For experiment [3], the system named is H358. The experiment can be described thus: In vitro cell proliferation inhibition assay (CellTiter-Glo), H358. Conditions: H358, KRAS (p.G12C), 72 h; read-out: IC50, antiproliferative activity. As for the experimental part:
as §1, §2

Experiment [4] concerns HepG2. The experiment can be described thus: In vitro cell proliferation inhibition assay (CellTiter-Glo), HepG2. The note with it: HepG2, NRAS (p.Q61L), 72 h; read-out: IC50, antiproliferative activity. As for the experimental part:
as §1, §2

For experiment [5], the system named is HCT116. The experiment can be described thus: In vitro cell proliferation inhibition assay (CellTiter-Glo), HCT116. Conditions: HCT116, KRAS (p.G13D), 72 h; read-out: IC50, antiproliferative activity. As for the experimental part:
as §1, §2

The subject of experiment [6] is PSN1. Description: In vitro cell proliferation inhibition assay (CellTiter-Glo), PSN1. Conditions: PSN1, KRAS (p.G12R), 72 h; read-out: IC50, antiproliferative activity. As for the experimental part:
as §1, §2

Experiment [7] concerns MV411. Description: In vitro cell proliferation inhibition assay (CellTiter-Glo), MV411. The note with it: MV411, KRAS wild type, 72 h; read-out: IC50, antiproliferative activity. As for the experimental part:
as §2

Take `CCn1c(-c2cc(-c3nnc(C4CCN(C5COC5)CC4)o3)cnc2[C@H](C)OC)c2c3cc(ccc31)-c1csc(n1)C[C@H](NC(=O)[C@H]1C[C@@H]1C)C(=O)N1CCC[C@H](N1)C(=O)OCC(C)(C)C2` (atropisomer, axis not shown) [Compound 1, (1S,2S)—N-((6^3S,4S,Z)-1^1-ethyl-1^2-(2-((S)-1-methoxyethyl)-5-(5-(1-(oxetan-3-yl)piperidin-4-yl)-1,3,4-oxadiazol-2-yl)pyridin-3-yl)-10,10-dimethyl-5,7-dioxo-6^1,6^2,6^3,6^4,6^5,6^6-hexahydro-1^1H-8-oxa-2(4,2)-thiazola-1(5,3)-indola-6(1,3)-pyridazinacycloundecaphane-4-yl)-2-methylcyclopropane-1-carboxamide]: the IC50 – broadly, the concentration at which inhibition is half-maximal – in experiment [1] was 0.05 nM; in experiment [2], 0.07 nM; in experiment [3], 0.06 nM; in experiment [4], 5 nM; in experiment [5], around 10 nM; in experiment [6], 5.1 nM. In addition, the 50% inhibitory concentration (IC50) in experiment [7] stood at 1.7 nM.

As for `CCn1c(-c2cc(-c3nnc([C@H]4CCCN(C5COC5)C4)o3)cnc2[C@H](C)OC)c2c3cc(ccc31)-c1csc(n1)C[C@H](NC(=O)[C@H]1C[C@@H]1C)C(=O)N1CCC[C@H](N1)C(=O)OCC(C)(C)C2` (atropisomer, axis not shown) [Compound 18, (1S,2S)—N-((6^3S,4S,Z)-1^1-ethyl-1^2-(2-((S)-1-methoxyethyl)-5-(5-((S)-1-(oxetan-3-yl)piperidin-3-yl)-1,3,4-oxadiazol-2-yl)pyridin-3-yl)-10,10-dimethyl-5,7-dioxo-6^1,6^2,6^3,6^4,6^5,6^6-hexahydro-1^1H-8-oxa-2(4,2)-thiazola-1(5,3)-indola-6(1,3)-pyridazinacycloundecaphane-4-yl)-2-methylcyclopropane-1-carboxamide], the IC50 is 0.03 nM in experiment [1]; 0.13 nM in experiment [2]; 0.39 nM in experiment [3]; 1.6 nM in experiment [4]; 23 nM in experiment [5]; 5.3 nM in experiment [6]. The IC50 in experiment [7] was found to be 13 nM.

On to `CCn1c(-c2cc(-c3nc(C4CCN(C5COC5)CC4)n(C4COC4)n3)cnc2[C@H](C)OC)c2c3cc(ccc31)-c1csc(n1)C[C@H](NC(=O)[C@H]1C[C@@H]1C)C(=O)N1CCC[C@H](N1)C(=O)OCC(C)(C)C2` (atropisomer, axis not shown) [Compound 26, (1S,2S)—N-((6^3S,4S,Z)-1^1-ethyl-1^2-(2-((S)-1-methoxyethyl)-5-(1-(oxetan-3-yl)-5-(1-(oxetan-3-yl)piperidin-4-yl)-1H-1,2,4-triazol-3-yl)pyridin-3-yl)-10,10-dimethyl-5,7-dioxo-6^1,6^2,6^3,6^4,6^5,6^6-hexahydro-1^1H-8-oxa-2(4,2)-thiazola-1(5,3)-indola-6(1,3)-pyridazinacycloundecaphane-4-yl)-2-methylcyclopropane-1-carboxamide], for which the IC50 in experiment [1] came out at 0.25 nM; in experiment [2] it was 0.54 nM; in experiment [3], 0.01 nM; in experiment [4], 0.25 nM; in experiment [5], 3.2 nM; in experiment [6], 0.08 nM. In addition, the 50% inhibitory concentration (IC50) in experiment [7] is 0.64 nM.

For `CCn1c(-c2cc(-c3nc(C4CCN(C5COC5)CC4)n(CCN(C)C)n3)cnc2[C@H](C)OC)c2c3cc(ccc31)-c1csc(n1)C[C@H](NC(=O)[C@H]1C[C@@H]1C)C(=O)N1CCC[C@H](N1)C(=O)OCC(C)(C)C2` (atropisomer, axis not shown) [Compound 27, (1S,2S)—N-((6^3S,4S,Z)-1^2-(5-(1-(2-(dimethylamino)ethyl)-5-(1-(oxetan-3-yl)piperidin-4-yl)-1H-1,2,4-triazol-3-yl)-2-((S)-1-methoxyethyl)pyridin-3-yl)-1^1-ethyl-10,10-dimethyl-5,7-dioxo-6^1,6^2,6^3,6^4,6^5,6^6-hexahydro-1^1H-8-oxa-2(4,2)-thiazola-1(5,3)-indola-6(1,3)-pyridazinacycloundecaphane-4-yl)-2-methylcyclopropane-1-carboxamide], the 50% inhibitory concentration (IC50) in experiment [1] stood at 0.37 nM; in experiment [2], 0.87 nM; in experiment [3] it was 0.17 nM; in experiment [4], 0.05 nM; in experiment [5], 11 nM; in experiment [6], 0.16 nM. The 50% inhibitory concentration (IC50) in experiment [7] was 1.1 nM.

As for `CO[C@@H](C)c1ncc(-c2nnc(C3CCN(C4COC4)C[C@@H]3C)o2)cc1-c1c2c3cc(ccc3n1CC(F)(F)F)-c1csc(n1)C[C@H](NC(=O)[C@H]1[C@H](C)[C@@H]1C)C(=O)N1N[C@H](C(=O)OCC(C)(C)C2)C2CC1C2` (stereo partly drawn) [Compound 38], the IC50 in experiment [1] turned out to be 0.01 nM; in experiment [2], 0.04 nM; in experiment [3], 0.04 nM; in experiment [4] it was 0.11 nM; in experiment [5], 0.02 nM; in experiment [6], 0.01 nM. The IC50 in experiment [7] came out at 0.45 nM.

For `CO[C@@H](C)c1ncc(-c2noc(C3CCN(C4COC4)CC3)n2)cc1-c1c2c3cc(ccc3n1CC(F)(F)F)-c1csc(n1)C[C@H](NC(=O)[C@H]1[C@H](C)[C@@H]1C)C(=O)N1N[C@H](C(=O)OCC(C)(C)C2)C2CC1C2` [Example 42], the IC50 was 0.01 nM in experiment [1]; 0.02 nM in experiment [2]; 0.03 nM in experiment [3]; 0.01 nM in experiment [4]; 0.03 nM in experiment [5]; 0.01 nM in experiment [6]. Besides, the concentration for half-maximal inhibition (IC50) in experiment [7] worked out at 0.56 nM.

On to `CO[C@@H](C)c1ncc(-c2nnc(C3CCN(C4CCN(C)CC4)CC3)o2)cc1-c1c2c3cc(ccc3n1CC(F)(F)F)-c1csc(n1)C[C@H](NC(=O)[C@H]1[C@@H]3COC[C@@H]31)C(=O)N1N[C@H](C(=O)OCC(C)(C)C2)C2CC1C2` [Example 45], for which the IC50 was determined as 0.06 nM in experiment [1]; 0.37 nM in experiment [2]; 0.01 nM in experiment [3]; 0.022 nM in experiment [4]; 1.1 nM in experiment [5]; 0.04 nM in experiment [6]. Besides, the IC50 in experiment [7] was determined as 0.42 nM.

Consider `CO[C@@H](C)c1ncc(-c2nnc(C3CCN(C4COC4)C3)o2)cc1-c1c2c3cc(ccc3n1CC(F)(F)F)-c1csc(n1)C[C@H](NC(=O)[C@H]1[C@H](C)[C@@H]1C)C(=O)N1N[C@H](C(=O)OCC(C)(C)C2)C2CC1C2` (stereo partly drawn) [Example 46], for which the IC50 stood at 0.05 nM in experiment [1]; 0.06 nM in experiment [2]; 0.01 nM in experiment [3]; 0.05 nM in experiment [4]; 0.58 nM in experiment [5]; 0.09 nM in experiment [6]. The IC50 in experiment [7] worked out at 1 nM.

`CCn1c(-c2cc(N3CCN(C)CC3)cnc2[C@H](C)OC)c2c3cc(ccc31)-c1csc(n1)C[C@H](NC(=O)[C@H]1C[C@@H]1C)C(=O)N1CCC[C@H](N1)C(=O)OCC(C)(C)C2` [RMC-6236]: the IC50 in experiment [1] was 1.2 nM; in experiment [2], 1.5 nM; in experiment [3], 0.08 nM; in experiment [4] it was 2.8 nM; in experiment [5] it was 2.6 nM; in experiment [6] it was 2 nM. Further, in experiment [7], the IC50 is 4.2 nM.
